Measured values: patent US9006185B2, “Use of cell-permeable peptide inhibitors of the JNK signal transduction pathway for the treatment of various diseases” (Xigen Inflammation Ltd., priority 2008, dated 2015)

Tests used:
hAPP Tg mice = assay: Morris Water Maze in hAPP transgenic mice; type: in vivo
Protocol: i) Introduction • The study was designed to evaluate the efficacy of the test substance (XG-102, SEQ ID NO: 11) on behavioral, biochemical and histological markers using 5 months (±2 weeks) old female hAPP Tg mice. Therefore, mice were treated every two or three weeks up to 4 months and in the end of the treatment period behavior was evaluated in the Morris Water Maze. At sacrifice brain, CSF and blood were collected. Aβ40 and Aβ42 levels were determined in four different brain homogenate fractions as well as in CSF of Tg mice. Plaque load was quantified in the cortex and the hippocampus of 8 Tg animals per treatment group.
ii) Animals • Female Tg mice with a C57BL/6×DBA background and an age of 5 months (±2 week) were randomly assigned to treatment groups 1 to 3 (n=12). […]
v) Morris Water Maze (MWM) • The Morris Water Maze (MWM) task was conducted in a black circular pool of a diameter of 100 cm. […] For the quantification of escape latency (the time [second]—the mouse needed to find the hidden platform and therefore to escape from the water), of pathway (the length of the trajectory [meter] to reach the target) and of the abidance in the goal quadrant a computerized tracking system was used. […] The camera detected the signal of the light emitting diode (LED), which was fixed with a little hairgrip on the mouse's tail. […]

[1] = system: endogenous JNK in HepG2 cells; assay: AlphaScreen, endogenous IL-1 dependent JNK activity in HepG2 cells; type: cell-based; conditions: FIG. 3 panel d
Protocol: HepG2 cells were seeded at 3,000 cells/well the day prior the experiment. Then, increasing concentrations of either interleukin-1 [IL-1 beta v)] or tumor necrosis factor [TNFalpha (•)] (a) were added to activate JNK for 30 minutes. Cells were lysed in 20 mM Hepes, 0.5% Tween pH 7.4 and processed for AlphaScreen JNK. (b) Z′ for the JNK activity induced by 10 ng/ml IL-1 and measured in 384 wells/plate (n=96). (c) Inhibition of endogenous IL-1 beta-induced JNK activity with chemical JNK inhibitors [staurosporin (°) and SP600125 (•)]. (d) Effect of peptidic inhibitors L-TAT-IB1(s) according to SEQ ID NO: 9 [here abbreviated as L-JNKi (ν)) and D-TAT-IB1(s) according to SEQ ID NO: 11 (here abbreviated as D-JNKi (♦)) and JBDs (•) (corresponds to L-JNKI without the TAT sequence)] on IL-1 dependent JNK activity. All panels are representative of three independent experiments (n=3). […]
Principle: AlphaScreen is a non-radioactive bead-based technology used to study biomolecular interactions in a microplate format. The acronym ALPHA stands for Amplified Luminescence Proximity Homogenous Assay. […]
Kinase reagents (B-GST-cJun, anti P-cJun antibody and active JNK3) were first diluted in kinase buffer (20 mM Tris-HCl pH 7.6, 10 mM MgCl2, 1 mM DTT, 100 μM Na3VO4, 0.01% Tween-20) and added to wells (15 μl). […] AlphaScreen signal was analyzed directly on the Fusion or En Vision apparatus.

[2] = system: Primary cultured macrophages; type: cell-based
Protocol: FIG. 24 Primary cultured macrophages were incubated with XG-102 (SEQ ID NO: 11) and extensively washed.

CC(C)C[C@@H](NC(=O)[C@@H](Cc1ccccc1)NC(=O)[C@H]1CCCN1C(=O)[C@@H](CCC(N)=O)NC(=O)[C@H](NC(=O)[C@H]1CCCN1C(=O)[C@@H](CCCNC(=N)N)NC(=O)[C@@H](CO)NC(=O)[C@@H](CCC(N)=O)NC(=O)[C@H](N)CC(=O)O)C(C)C)C(=O)N[C@H](CC(N)=O)C(=O)N[C@H](CC(C)C)C(=O)N[C@@H](C(=O)N[C@@H](C(=O)N1CCC[C@@H]1C(=O)N[C@H](CCCNC(=N)N)C(=O)N[C@H](CCCCN)C(=O)N1CCC[C@@H]1C(=O)N[C@H](CCCNC(=N)N)C(=O)N1CCC[C@@H]1C(=O)N1CCC[C@@H]1C(=O)N[C@H](CCCNC(=N)N)C(=O)N[C@H](CCCNC(=N)N)C(=O)N[C@H](CCCNC(=N)N)C(=O)N[C@H](CCC(N)=O)C(=O)N[C@H](CCCNC(=N)N)C(=O)N[C@H](CCCNC(=N)N)C(=O)N[C@H](CCCCN)C(=O)N[C@H](CCCCN)C(=O)N[C@H](CCCNC(=N)N)C(=O)NCC(=O)O)[C@H](C)O)[C@H](C)O [XG-102]
learning performance in the MWM (hAPP Tg mice; 0.1 mg/kg): a tendency to have worse learning performance between day 1 and day 4 | spatial learning in the MWM (hAPP Tg mice; 0.1 mg/kg every two weeks or 10 mg/kg every three weeks s.c., four months): remained widely uninfluenced | inhibition of IL-1 dependent endogenous JNK activity [1]: effectively inhibits JNK activity, even better than L-TAT-IB1(s) | incorporation into primary macrophages [2]: strongly incorporated into primary macrophages
